# Assay results from US20060276406A1, “Methods of treating hepatitis C virus” (Schering Corporation, priority 2005, published 2006).
# Tests used:
# [1] = Solubility in water / aqueous systems; assay type: physicochemical
# [2] = Treatment study: plasma Cmin after oral dosing for 14 days in HCV genotype-1 patients; assay type: in vivo, human; details: for Plasma Mean Cmin at 0 hour (trough) predose: 14 days, preliminary mean
# Procedure: FIG. 2 is a box plot showing trough plasma levels of a compound of Formula Ia measured on day 14 at various times when a compound of Formula Ia is administered twice per day (bid, left box) and when a compound of Formula Ia is administered three times per day (tid, right box). It has been determined that metabolism of compounds of the present invention is also affected by the patient's circadian rhythm. As shown in FIG. 2 (right hand box), plasma levels of the drug are highest in the morning, when measured 8 hours after the previous dose and before the morning dose is administered.
structure (smiles),measurement,setting,value
"CC(C)(C)NC(=O)N[C@H](C(=O)N1CC2C([C@H]1C(=O)NC(CC1CCC1)C(=O)C(N)=O)C2(C)C)C(C)(C)C (stereo partly drawn) [Formula Ia, (1R,5S)-N-[3-Amino-1-(Cyclobutylmethyl)-2,3-Dioxopropyl]-3-[2(S)-[[[(1,1-Dimethylethyl)Amino]Carbonyl]Amino]-3,3-Dimethyl-1-Oxobutyl]-6,6-Dimethyl-3-Azabicyclo[3.1.0]Hexan-2(S)-Carboxamide]",solubility,[1],~600 µg/mL
same,Plasma Mean Cmin at 0 hour (trough) predose,"[2]; 100 mg BID oral, n = 12, HCV genotype-1 patients",Cmin = 12.7 ng/ml
same,Plasma Mean Cmin at 0 hour (trough) predose,"[2]; 200 mg BID oral, n = 12, HCV genotype-1 patients",Cmin = 46.3 ng/ml
same,Plasma Mean Cmin at 0 hour (trough) predose,"[2]; 400 mg BID oral, n = 11, HCV genotype-1 patients",Cmin = 48.8 ng/ml
same,Plasma Mean Cmin at 0 hour (trough) predose,"[2]; 400 mg TID oral, n = 10, HCV genotype-1 patients",Cmin = 183 ng/ml
same,average Cmin plasma concentration maintained,[2]; all dosing regimens of Table 1,≥ 10 ng/mL
